# Reference: ChEMBL document CHEMBL3580565, “Synthesis and Biological Evaluation of Cyclopentaquinoline Derivatives as Nonsteroidal Glucocorticoid Receptor Antagonists” (J Med Chem, 2015)
# pIC50, pKi: −log10 of the molar value.
# Tests used:
# [1] = biological target: T1, Mineralocorticoid receptor (Homo sapiens, UniProt P08235); assay: Displacement of [3H]-aldosterone from cytosolic fraction of human recombinant mineralocorticoid receptor by scintillation counting analysis
# T1 sequence (P08235 whole entry): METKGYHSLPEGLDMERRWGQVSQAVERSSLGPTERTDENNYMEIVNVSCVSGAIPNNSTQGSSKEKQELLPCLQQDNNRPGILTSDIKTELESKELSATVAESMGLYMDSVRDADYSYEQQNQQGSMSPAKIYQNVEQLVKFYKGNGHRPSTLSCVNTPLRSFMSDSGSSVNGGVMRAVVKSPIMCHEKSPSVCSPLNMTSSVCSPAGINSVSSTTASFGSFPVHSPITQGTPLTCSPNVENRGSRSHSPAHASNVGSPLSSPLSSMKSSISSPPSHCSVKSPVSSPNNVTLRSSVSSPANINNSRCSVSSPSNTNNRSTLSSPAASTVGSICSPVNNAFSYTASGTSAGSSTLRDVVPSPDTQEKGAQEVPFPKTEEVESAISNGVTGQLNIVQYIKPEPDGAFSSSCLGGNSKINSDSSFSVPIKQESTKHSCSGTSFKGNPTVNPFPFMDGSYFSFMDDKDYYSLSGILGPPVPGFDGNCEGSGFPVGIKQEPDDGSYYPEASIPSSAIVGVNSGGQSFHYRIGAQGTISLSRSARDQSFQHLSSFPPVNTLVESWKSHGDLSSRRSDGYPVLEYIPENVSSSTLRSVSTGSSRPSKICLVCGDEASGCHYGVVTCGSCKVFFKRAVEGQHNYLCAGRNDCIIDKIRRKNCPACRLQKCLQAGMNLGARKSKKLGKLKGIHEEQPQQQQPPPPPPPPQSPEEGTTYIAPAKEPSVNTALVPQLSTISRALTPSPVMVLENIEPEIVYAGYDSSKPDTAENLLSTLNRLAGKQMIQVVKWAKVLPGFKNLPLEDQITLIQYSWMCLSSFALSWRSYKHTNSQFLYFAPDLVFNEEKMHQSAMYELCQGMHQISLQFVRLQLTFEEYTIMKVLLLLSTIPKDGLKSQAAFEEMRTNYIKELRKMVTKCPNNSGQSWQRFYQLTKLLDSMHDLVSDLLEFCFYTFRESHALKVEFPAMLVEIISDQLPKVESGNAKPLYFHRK
# Glucocorticoid receptor [2] = biological target: T2, Glucocorticoid receptor (Homo sapiens, UniProt P04150); assay: Displacement of [3H]-dexamethasone from cytosolic fraction of human recombinant glucocorticoid receptor by scintillation counting analysis
# T2 sequence (P04150 whole entry): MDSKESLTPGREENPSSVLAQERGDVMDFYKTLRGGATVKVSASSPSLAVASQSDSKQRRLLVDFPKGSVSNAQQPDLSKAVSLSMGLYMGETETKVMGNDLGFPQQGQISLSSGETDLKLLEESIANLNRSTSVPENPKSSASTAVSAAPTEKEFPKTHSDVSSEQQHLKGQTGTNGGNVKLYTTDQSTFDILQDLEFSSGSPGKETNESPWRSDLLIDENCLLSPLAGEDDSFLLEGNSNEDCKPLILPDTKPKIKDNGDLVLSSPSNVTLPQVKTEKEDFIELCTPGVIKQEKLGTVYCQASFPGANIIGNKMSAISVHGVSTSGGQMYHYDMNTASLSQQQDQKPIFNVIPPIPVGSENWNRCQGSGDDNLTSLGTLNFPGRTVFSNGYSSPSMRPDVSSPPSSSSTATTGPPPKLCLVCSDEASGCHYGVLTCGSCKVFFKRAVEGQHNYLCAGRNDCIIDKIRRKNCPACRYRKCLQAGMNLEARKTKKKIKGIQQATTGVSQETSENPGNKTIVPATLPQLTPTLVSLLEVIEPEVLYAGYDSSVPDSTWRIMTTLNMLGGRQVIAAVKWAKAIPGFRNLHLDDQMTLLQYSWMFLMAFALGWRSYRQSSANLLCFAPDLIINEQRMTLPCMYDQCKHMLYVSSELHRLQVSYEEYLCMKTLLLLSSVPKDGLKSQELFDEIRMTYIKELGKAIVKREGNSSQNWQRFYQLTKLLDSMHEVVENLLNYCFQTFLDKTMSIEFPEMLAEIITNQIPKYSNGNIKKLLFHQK
# Progesterone receptor = biological target: T3, Progesterone receptor (Homo sapiens, UniProt P06401); assay: Displacement of [3H]-progesterone from cytosolic fraction of human recombinant progesterone-B receptor by scintillation counting analysis
# T3 sequence (P06401 whole entry): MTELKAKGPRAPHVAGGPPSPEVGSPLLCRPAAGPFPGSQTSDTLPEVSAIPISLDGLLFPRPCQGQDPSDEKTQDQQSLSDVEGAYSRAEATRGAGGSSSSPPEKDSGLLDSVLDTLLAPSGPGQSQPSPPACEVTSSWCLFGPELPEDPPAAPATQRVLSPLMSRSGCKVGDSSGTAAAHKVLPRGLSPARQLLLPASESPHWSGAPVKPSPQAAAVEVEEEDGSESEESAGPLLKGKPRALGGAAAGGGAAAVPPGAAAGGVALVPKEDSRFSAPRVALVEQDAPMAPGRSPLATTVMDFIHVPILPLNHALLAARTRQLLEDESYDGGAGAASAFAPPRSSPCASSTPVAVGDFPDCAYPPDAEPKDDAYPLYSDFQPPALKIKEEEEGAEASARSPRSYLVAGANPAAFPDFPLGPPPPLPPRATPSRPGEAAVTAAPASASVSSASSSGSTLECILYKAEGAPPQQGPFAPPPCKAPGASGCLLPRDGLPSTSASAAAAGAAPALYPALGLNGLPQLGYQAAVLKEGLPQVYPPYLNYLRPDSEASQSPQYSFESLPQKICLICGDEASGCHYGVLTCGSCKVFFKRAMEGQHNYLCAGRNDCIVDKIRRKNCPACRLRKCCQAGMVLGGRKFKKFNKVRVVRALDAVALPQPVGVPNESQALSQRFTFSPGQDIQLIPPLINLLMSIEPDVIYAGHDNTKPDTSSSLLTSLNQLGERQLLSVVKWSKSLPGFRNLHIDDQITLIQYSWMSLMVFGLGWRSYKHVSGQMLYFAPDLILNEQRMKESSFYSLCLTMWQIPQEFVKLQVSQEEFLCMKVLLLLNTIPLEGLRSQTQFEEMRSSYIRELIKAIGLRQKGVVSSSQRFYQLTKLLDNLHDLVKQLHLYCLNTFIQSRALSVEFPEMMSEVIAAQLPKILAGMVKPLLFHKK
# Glucocorticoid receptor [3] = biological target: T2, Glucocorticoid receptor; assay: Antagonist activity at human glucocorticoid receptor transfected in CHOK1 cells assessed as inhibition of dexamethasone-induced receptor transcriptional activity after 6 hrs by luciferase reporter gene assay; format: cell-based, CHO-K1
# Rattus norvegicus [4] = assay: Antidepressant-like activity in Wistar rat assessed as decrease in immobility time at 30 mg/kg, po administered at 1, 5, 23.5 hrs prior to testing measured for 5 mins by forced swimming test relative to vehicle-treated control; format: functional; design: scale not given: the % may be the effect or the level left
# Rattus norvegicus [5] = assay: Antidepressant-like activity in Wistar rat assessed as immobility time at 30 mg/kg, po administered at 1, 5, 23.5 hrs prior to testing measured for 5 mins by forced swimming test (reference value: 211.3 to 232.2 secs); format: functional
# Rattus norvegicus [6] = assay: Antidepressant-like activity in Wistar rat assessed as decrease in immobility time at 10 mg/kg, po administered at 1, 5, 23.5 hrs prior to testing measured for 5 mins by forced swimming test relative to vehicle-treated control; format: functional; design: scale not given: the % may be the effect or the level left
# Rattus norvegicus [7] = assay: Antidepressant-like activity in Wistar rat assessed as immobility time at 10 mg/kg, po administered at 1, 5, 23.5 hrs prior to testing measured for 5 mins by forced swimming test (reference value: 211.3 to 232.2 secs); format: functional
SMILES,pKi (Glucocorticoid receptor [2]),pKi (Progesterone receptor),pIC50 (Glucocorticoid receptor [3]),other results
Cc1noc(C)c1-c1ccc2c(c1)C(C)(C)C(=O)C(C)(C)N2,7.80,7.66,7.43,pKi [1]: 6.47
Cc1noc(C)c1-c1cc2c(cc1Cl)NC(C)(C)C(=O)C2(C)C,6.82,6.39,> 7.52,pKi [1]: < 5.52
COc1cc2c(cc1-c1c(C)noc1C)C(C)(C)C(=O)C(C)(C)N2,6.84,–,–,–
Cc1noc(C)c1-c1cc2c(c3c1CCCC3)NC(C)(C)C(=O)C2(C)C,6.97,–,6.78,–
Cc1noc(C)c1-c1cc2c(c3c1OCO3)NC(C)(C)C(=O)C2(C)C,–,5.64,7.11,pKi [1]: < 5.52
Cc1cnn(C)c1-c1cc2c(c3c1CCC3)NC(C)(C)C(=O)C2(C)C,7.55,< 5.90,6.89,–
Cc1cn(C)c(-c2cc3c(c4c2CCC4)NC(C)(C)C(=O)C3(C)C)n1,< 6.42,–,–,–
CC#C[C@]1(O)CC[C@H]2[C@@H]3CCC4=CC(=O)CCC4=C3[C@@H](c3ccc(N(C)C)cc3)C[C@@]21C [MIFEPRISTONE],–,–,–,Activity (Rattus norvegicus [4]): 80.1%; Time (Rattus norvegicus [5]): 169.3 s; Activity (Rattus norvegicus [6]): 88.5%; Time (Rattus norvegicus [7]): 187 s

# Continued, in another order:
pKi (Glucocorticoid receptor [2]),pKi (Progesterone receptor),pIC50 (Glucocorticoid receptor [3]),SMILES,other results
7.16,–,6.82,Cc1ncn(C)c1-c1cc2c(c3c1CCC3)NC(C)(C)C(=O)C2(C)C,–
< 6.42,–,–,Cc1cc(-c2cc3c(c4c2CCC4)NC(C)(C)C(=O)C3(C)C)n(C)n1,–
–,–,7.68,CC1(C)Nc2c(cc(-c3cccc4nccn34)c3c2CCC3)C(C)(C)C1=O,–
7.46,5.92,7.08,CC1(C)Nc2c(cc(-c3cccn4nccc34)c3c2CCC3)C(C)(C)C1=O,–
7.34,< 5.90,7.03,CC1(C)Nc2c(cc(-c3cncc4nccn34)c3c2CCC3)C(C)(C)C1=O,pKi [1]: < 5.48
–,–,7.04,CC1(C)Nc2c(cc(-c3cccc4nncn34)c3c2CCC3)C(C)(C)C1=O,–
< 6.42,–,–,CC1(C)Nc2c(cc(-c3cccn4cnnc34)c3c2CCC3)C(C)(C)C1=O,–
6.82,–,–,CC1(C)Nc2c(cc(-c3ccnc4ccccc34)c3c2CCC3)C(C)(C)C1=O,–
–,–,7.28,CC1(C)Nc2c(cc(-c3ccnc4ncccc34)c3c2CCC3)C(C)(C)C1=O,–
